Experimental findings from ChEMBL document CHEMBL5143721, “Novel Hydroxychalcone-Based Dual Inhibitors of Aldose Reductase and α-Glucosidase as Potential Therapeutic Agents against Diabetes Mellitus and Its Complications” (J Med Chem, 2022) are described below.

The test system of data set [1] is Rattus norvegicus. Briefly: Antidiabetic activity against STZ-induced diabetic Sprague-Dawley rat model assessed as reduction in fasting blood glucose level at 80 mg/kg, IG administered once daily for 28 days. The class given is functional. More on the design: scale not given: the % may be the effect or the level left. The settings on record: time 28 day.
The test system of data set [2] is Rattus norvegicus. Briefly: Antidiabetic activity against 12 hrs fasted STZ-induced diabetic Sprague-Dawley rat model assessed as reduction in AUC of blood glucose at 80 mg/kg, IG administered once daily for 28 days followed by maltose addition after 30 mins post cpd treatment and measured after 30 mins post maltose treatment. The class given is functional. More on the design: scale not given: the % may be the effect or the level left.

The subject of data set [3] is Rattus norvegicus. Briefly: Antidiabetic activity against STZ-induced diabetic Sprague-Dawley rat model assessed as reduction in triglycerides level in serum at 80 mg/kg, IG administered once daily for 28 days relative to control. The class given is functional. More on the design: scale not given: the % may be the effect or the level left. As to conditions: time 28 day.

The nature of data set [4]: Antioxidant activity assessed as DPPH radical scavenging activity at 5 uM incubated for 30 mins by DPPH assay relative to control. The class given is functional. On the technique in general: The DPPH test is a chemical assay of radical scavenging.
A short description of data set [5]: In vivo inhibition of ALR2 in STZ-induced diabetic Sprague-Dawley rat model assessed as reduction in sorbitol accumulation in lens at 160 mg/kg, IG administered once daily for 28 days by colorimetric assay relative to control. Format: functional. Details: scale not given: the % may be the effect or the level left. The settings on record: time 28 day.
The subject of data set [6] is Rattus norvegicus. Briefly: Antidiabetic activity against STZ-induced diabetic Sprague-Dawley rat model assessed as reduction in total cholesterol level in liver at 160 mg/kg, IG administered once daily for 28 days relative to control. More on the design: scale not given: the % may be the effect or the level left. The settings on record: time 28 day. The class given is functional.

The subject of data set [7] is Rattus norvegicus. As to the kind of experiment: Antioxidant activity against STZ-induced diabetic Sprague-Dawley rat model assessed as reduction in SOD level at 160 mg/kg, IG administered once daily for 28 days relative to control. The class given is functional. More on the design: scale not given: the % may be the effect or the level left. The settings on record: time 28 day.

A short description of data set [8]: In vivo inhibition of ALR2 in STZ-induced diabetic Sprague-Dawley rat model assessed as reduction in ALR2 activity in lens at 160 mg/kg, IG administered once daily for 28 days relative to control. Format: functional. Details: scale not given: the % may be the effect or the level left. As to conditions: time 28 day.
The test system of data set [9] is Rattus norvegicus. As to the kind of experiment: Antioxidant activity against STZ-induced diabetic Sprague-Dawley rat model assessed as reduction in GSH level at 80 mg/kg, IG administered once daily for 28 days relative to control. The class given is functional. More on the design: scale not given: the % may be the effect or the level left. The settings on record: time 28 day.

The subject of data set [10] is Brain. As to the kind of experiment: Antioxidant activity in rat brain homogenate assessed as inhibition of lipid peroxidation by measuring MDA concentration at 5 uM by TBARS assay relative to control. The class given is functional, tissue-based. More on the design: scale not given: the % may be the effect or the level left.
For data set [11], the system named is Brain. As to the kind of experiment: Antioxidant activity in rat brain homogenate assessed as inhibition of lipid peroxidation by measuring MDA concentration at 1 uM by TBARS assay relative to control. The class given is functional, tissue-based. More on the design: scale not given: the % may be the effect or the level left.
The nature of data set [12]: Antioxidant activity assessed as DPPH radical scavenging activity at 100 uM incubated for 30 mins by DPPH assay relative to control. Format: functional.
The test system of data set [13] is Rattus norvegicus. Briefly: Antidiabetic activity against STZ-induced diabetic Sprague-Dawley rat model assessed as reduction in total cholesterol level in liver at 80 mg/kg, IG administered once daily for 28 days relative to control. The class given is functional. Details: scale not given: the % may be the effect or the level left. The settings on record: time 28 day.

The nature of data set [14]: Octanol/buffer distribution coefficient, log D of compound at pH 7.4 incubated for 24 hrs by shake flask based HPLC method. The class given is physicochemical.
The test system of data set [15] is Rattus norvegicus. As to the kind of experiment: Antidiabetic activity against STZ-induced diabetic Sprague-Dawley rat model assessed as reduction in triglycerides level in serum at 160 mg/kg, IG administered once daily for 28 days relative to control. The settings on record: time 28 day. More on the design: scale not given: the % may be the effect or the level left. Format: functional.

Data set [16] concerns Brain. As to the kind of experiment: Antioxidant activity in rat brain homogenate assessed as inhibition of lipid peroxidation by measuring MDA concentration at 100 uM by TBARS assay relative to control. Format: functional, tissue-based. More on the design: scale not given: the % may be the effect or the level left.
Data set [17] can be described thus: Antioxidant activity assessed as DPPH radical scavenging activity at 10 uM incubated for 30 mins by DPPH assay relative to control. Format: functional.
Data set [18] concerns Rattus norvegicus. Briefly: Antidiabetic activity against STZ-induced diabetic Sprague-Dawley rat model assessed as reduction in triglycerides level in liver at 160 mg/kg, IG administered once daily for 28 days relative to control. The class given is functional. More on the design: scale not given: the % may be the effect or the level left. The settings on record: time 28 day.

Data set [19] has as its system Rattus norvegicus. As to the kind of experiment: Antidiabetic activity against 12 hrs fasted STZ-induced diabetic Sprague-Dawley rat model assessed as reduction in blood glucose level at 160 mg/kg, IG administered once daily for 28 days followed by glucose addition after 30 mins post cpd treatment and measured after 30 mins post glucose treatment by oral glucose tolerance test. Format: functional, organism-based. As to conditions: time 673.0 hrs.

Data set [20] in a line: In vivo inhibition of ALR2 in STZ-induced diabetic Sprague-Dawley rat model assessed as reduction in sorbitol accumulation in lens at 80 mg/kg, IG administered once daily for 28 days by colorimetric assay relative to control. Format: functional. The settings on record: time 28 day. Details: scale not given: the % may be the effect or the level left.
The subject of data set [21] is Rattus norvegicus. Briefly: Antidiabetic activity against STZ-induced diabetic Sprague-Dawley rat model assessed as reduction in total cholesterol level in serum at 80 mg/kg, IG administered once daily for 28 days relative to control. The class given is functional. As to conditions: time 28 day. More on the design: scale not given: the % may be the effect or the level left.

Data set [22] in a line: In vivo inhibition of ALR2 in STZ-induced diabetic Sprague-Dawley rat model assessed as reduction in sorbitol accumulation in red blood cells at 160 mg/kg, IG administered once daily for 28 days by colorimetric assay relative to control. Format: functional. Details: scale not given: the % may be the effect or the level left. The settings on record: time 28 day.
Another data set deals with HEK-293T. As to the kind of experiment: Cytotoxicity against HEK293T cells at 15 to 200 micromol/L by MTT assay. Format: toxicity, cell-based. As to conditions: human, dose 15-200 µmol/L. Background: Formazan colour is commonly taken as a measure of viable cells.
Data set [23] can be described thus: In vivo inhibition of ALR2 in STZ-induced diabetic Sprague-Dawley rat model assessed as reduction in sorbitol accumulation in red blood cells at 80 mg/kg, IG administered once daily for 28 days by colorimetric assay relative to control. Format: functional. Details: scale not given: the % may be the effect or the level left. The settings on record: time 28 day.

The nature of data set [24]: Antioxidant activity assessed as DPPH radical scavenging activity at 50 uM incubated for 30 mins by DPPH assay relative to control. Format: functional.
The test system of data set [25] is Rattus norvegicus. Briefly: Antidiabetic activity against STZ-induced diabetic Sprague-Dawley rat model assessed as reduction in total cholesterol level in serum at 160 mg/kg, IG administered once daily for 28 days relative to control. Details: scale not given: the % may be the effect or the level left. Format: functional. As to conditions: time 28 day.
Data set [26] in a line: Antioxidant activity assessed as DPPH radical scavenging activity at 1 uM incubated for 30 mins by DPPH assay relative to control. Format: functional.
Data set [27] in a line: Inhibition of Wistar rat kidney ALR1 using sodium D-glucuronate as substrate preincubated for 10 mins in presence of NADPH followed by substrate addition and measured after 4 mins. The class given is tissue-based.
The species entered for data set [28] is Rattus norvegicus. Briefly: Selectivity index, ratio of IC50 for Wistar rat kidney ALR1 to IC50 for Wistar rat lens ALR2.
The subject of data set [29] is Brain. Briefly: Antioxidant activity in rat brain homogenate assessed as inhibition of lipid peroxidation by measuring MDA concentration at 10 uM relative to control. Format: functional, tissue-based. More on the design: scale not given: the % may be the effect or the level left.
In data set [30] the test system is Rattus norvegicus. As to the kind of experiment: Antidiabetic activity against STZ-induced diabetic Sprague-Dawley rat model assessed as increase in liver glycogen levels at 160 mg/kg, IG administered once daily for 28 days. The class given is functional. The settings on record: time 28 day.
Data set [31] relates to Rattus norvegicus. Briefly: Antioxidant activity against STZ-induced diabetic Sprague-Dawley rat model assessed as reduction in MDA level at 80 to 160 mg/kg, IG administered once daily for 28 days relative to control. Format: functional, organism-based. The settings on record: dose 80-160 mg/kg, time 28.0 day.
For data set [32], the system named is Brain. Briefly: Antioxidant activity in rat brain homogenate assessed as inhibition of lipid peroxidation by measuring MDA concentration at 50 uM by TBARS assay relative to control. Format: functional, tissue-based. Details: scale not given: the % may be the effect or the level left.
For data set [33], the system named is Rattus norvegicus. As to the kind of experiment: Antioxidant activity against STZ-induced diabetic Sprague-Dawley rat model assessed as reduction in GSH level at 160 mg/kg, IG administered once daily for 28 days relative to control. As to conditions: time 28 day. Details: scale not given: the % may be the effect or the level left. Format: functional.
Data set [34] can be described thus: Inhibition of Wistar rat lens ALR2 using D,L-glyceraldehyde as substrate preincubated for 10 mins in presence of NADPH followed by substrate addition and measured after 4 mins. Format: tissue-based.
The test system of data set [35] is Rattus norvegicus. Briefly: Antidiabetic activity against STZ-induced diabetic Sprague-Dawley rat model assessed as reduction in fasting blood glucose level at 160 mg/kg, IG administered once daily for 28 days. The class given is functional. Details: scale not given: the % may be the effect or the level left. As to conditions: time 28 day.
A short description of data set [36]: In vivo inhibition of ALR2 in STZ-induced diabetic Sprague-Dawley rat model assessed as reduction in ALR2 activity in lens at 80 mg/kg, IG administered once daily for 28 days relative to control. As to conditions: time 28 day. Format: functional. More on the design: scale not given: the % may be the effect or the level left.
Data set [37] has as its system Rattus norvegicus. Briefly: Antioxidant activity against STZ-induced diabetic Sprague-Dawley rat model assessed as reduction in SOD level at 80 mg/kg, IG administered once daily for 28 days relative to control. As to conditions: time 28 day. More on the design: scale not given: the % may be the effect or the level left. The class given is functional.
Data set [38] has as its system Rattus norvegicus. Briefly: Antidiabetic activity against STZ-induced diabetic Sprague-Dawley rat model assessed as reduction in triglycerides level in liver at 80 mg/kg, IG administered once daily for 28 days relative to control. Format: functional. Details: scale not given: the % may be the effect or the level left. The settings on record: time 28 day.

Molecules are shown by their SMILES. Activity calls are given as the source filed them. No cut-off for these calls is given here.

For `C[C@H]1O[C@H](O[C@H]2[C@H](O)[C@@H](O)[C@@H](O[C@H]3[C@H](O)[C@@H](O)C(O)O[C@@H]3CO)O[C@@H]2CO)[C@H](O)[C@@H](O)[C@@H]1N[C@H]1C=C(CO)[C@@H](O)[C@H](O)[C@H]1O` (stereo not given in full) [ACARBOSE], the Activity was 16.2% in the data set with Rattus norvegicus [1] and 22.35% with Rattus norvegicus [2].
One may read the logD as lipophilicity at a set pH, counting ionised and neutral species. A word on the IC50: it is the point on the concentration scale where inhibition reaches its midpoint. As to `COC(=O)Cn1c(=O)oc2c(C(=O)/C=C/c3ccc(O)c(O)c3)cccc21`, the Activity amounted to 44% in the data set with Rattus norvegicus [3]; 89.4% in [4]; 34.1% in [5]; 3.1% with Rattus norvegicus [6]; 81.3% in the data set on Rattus norvegicus [7]; 52.1% in data set [8]. Besides, the Activity was 26.8% with Rattus norvegicus [9]; 60.5% with Brain [10]; 35.8% in the data set on Brain [11]; 20.5% with Rattus norvegicus [1]; 97.5% in data set [12]; 32.1% in the data set on Rattus norvegicus [13]. The Activity amounted to 56.5% with Rattus norvegicus [15]; 97.5% with Brain [16]; 94.9% in data set [17]; 33.8% with Rattus norvegicus [18]; 41.7% in [20]; 46% with Rattus norvegicus [21]. In addition, the Activity in [22] is 64.7%; with HEK-293T, “Non-Toxic”; in data set [23], 59.7%; in data set [24] it was 96.5%; in the data set with Rattus norvegicus [25] it was 44.1%; in data set [26], 41.2%. Besides, the Activity in the data set on Brain [29] stood at 77.5%; with Rattus norvegicus [30] it was 36.58%; in the data set on Brain [32], 91.6%; in the data set with Rattus norvegicus [33], 52.3%; in the data set on Rattus norvegicus [35], 30.4%; in [36] it was 60.8%. Besides, the Activity in the data set with Rattus norvegicus [37] was 35.5%; in the data set with Rattus norvegicus [38], 30.6%. The compound further gave a logD at 24 h in data set [14] of 0.86. Besides, the outcome in the data set with Rattus norvegicus [19] and with Rattus norvegicus [31] was Active. Further, the IC50 worked out at 6.22 µM in [27] and 0.114 µM in data set [34]. In addition, in the data set filed under Rattus norvegicus [28], the Ratio IC50 was 54.6.
